Experiments:
[1] = test system: adult Long-Evans male rats; assay: Example 18: elevated plus maze, body weight and hypothalamic volumes in adult male rats treated with equol; format: in vivo, rat
Excerpt: In this study, anxiety-related behaviors were examined along with hormone levels in adult Long-Evans male rats exposed to equol. A known and accepted animal behavioral test for psychiatric disorders in humans, such as elevated plus maze (EPM) was used for this purpose (P. Willner, in Behavioral Models in Psychopharmacology: Theoretical, Industrial and Clinical Perspectives, New York, Cambridge Univ. Press, 1991; M. A. Geyer & A. Markou, in Psychopharmacology: The Fourth Generation of Progress, NY, Raven Press, pp. 787-798, 1995; and R. Hitzemann, Alcohol & Res. Health, 24: 149-158, 2000).
The EPM test relies on the inherent conflict between exploration of a novel environment and avoidance of its aversive features. Typically, animals spend little time and make few entries into the open arms (new environment) compared to the closed arms of the maze (secure environment). For example, an anti-anxiety agent or drug would increase the number of entries into and total time spent in the open arms of the maze.
Male rats 50 days of age were given a diet low in phytoestrogens (10 ppm of isoflavones) and remained on this diet until 215 days of age. At 150 days of age the rats were age and body weight matched and then divided into control or equol treatment groups. Starting at 190 days, the male rats received daily subcutaneous (0.1 cc) injections of control vehicle (DMSO) or equol (2.5 mg/Kg) for 25 consecutive days.
After 15 days on the treatments the animals were tested in the EPM that was video-taped for 3 minutes and later recorded for the number of entries into—and the percentage of total time spent—on the open arms via AnyMaze® computer software.
At 215 days of age the animals were sacrificed and body/prostate weights, serum hormone and isoflavone levels were determined along with determining the volume of hypothalamic regions that are sensitive to hormones.
The brains were processed via standard staining and analyzed via Bioquant® for morphometric SDN and AVPV parameters by treatments.

[2] = test system: Long-Evans rats, male offspring; assay: Example 19: elevated plus maze of adult male offspring after pre- and early postnatal treatment; format: in vivo, rat; details: offspring tested at about 90 days
Description: Pregnant Long-Evans rats were treated via daily subcutaneous injections from gestational day 14 through 20 and during lactation from postnatal day 2 through 25 with: 1) control-DMSO vehicle or, 2) genistein@ 3 mg/day or 3) equol@ 3 mg/day according to the treatment groups. All animals were fed a phytoestrogen-low diet throughout these studies (10 ppm isoflavones). There were no significant differences in maternal body weights just before birth among the treatment groups. […] The maternal and male offspring genistein and equol levels @ 25 days post birth) paralleled that of the treatments administered.
At approximately 90 days of age the male offspring were tested by treatments (control, genistein and equol) in the EPM that was video-taped for 3 minutes and later recorded for the number of entries into—and the percentage of total time spent—on the open arms, as previously described. […] Equol time intervals were 2-fold greater than genistein values and genistein levels were approximately 9-fold greater than controls.

intact males = assay: Example 2: tissue weights from intact males given sc injections of racemic equol; format: in vivo, rat; details: sc once/day for 7 days
[3] = test system: adult Long-Evans male rats; details: equol-treated male rats vs control, previously reported in US 2005/0245492; cited from earlier work
GDX males = assay: Examples 5 and 6: gonadectomized (GDX) male rats treated with DHTP, equol or both; histology; format: in vivo, rat
[4] = humans; cited from earlier work
[5] = Competition and binding studies of equol with other labelled steroids
Male Sprague-Dawley rats = assay: Example 1: prostate size and hormone secretion in intact male rats injected sc with racemic equol; format: in vivo, rat; details: intact males, 0.25 mg/kg sc 1/day for 4 days, vs control
Description: Male Sprague-Dawley rats (400-500 grams) are obtained from Charles Rivers Laboratories (Wilmington, Mass., USA). Rats are caged in pairs and maintained on a 12-hour dark 12-hour light schedule (lights on at 0700 h) with ad libitum access to food and water.
One week following arrival, animals are given subcutaneous (sc) injections (1/day for 4 days) of either dimethylsulfoxide (DMSO) (vehicle control) or racemic equol (0.25 mg/kg). Eighteen hours after the final injection, animals are killed via decapitation and trunk blood and prostate are collected for analysis.

[6] = 25 consecutive days, n = 4, not significant vs control
[7] = after 15 days of treatment, vs controls

Oc1ccc(C2COc3cc(O)ccc3C2)cc1 (racemic) [equol, 7-hydroxy-3(4′hydroxyphenyl)-chroman]
AVPV Volumes [1, 6]: 10.59 ± 1.6 mm^3 × 10^−3
SDN Volumes [1, 6]: 46.3 ± 3.1 mm^3 × 10^−3
number of entries into the open arms of the EPM [1, 7]: significantly greater
time spent on the open arms of the EPM [1, 7]: significantly greater
body weights ([1]; equol 2.5 mg/Kg sc daily for 25 days, vs control): significantly decreased
serum equol levels ([1]; equol-treated animals): equivalent to consuming a phytoestrogen-rich soy diet
entries into the open arms vs controls ([2]; 3 mg/day sc to dams): significantly greater
time in the open arms vs controls ([2]; 3 mg/day sc to dams): significantly greater
open arm time intervals, fold greater than genistein values [2]: 2 fold
Body (g) (intact males): 418.0 (±7.52) g
Epididymis (g) (intact males): 1.59 (±0.06) g
Pituitary (g) (intact males): 0.014 (±0.002) g
Prostate (g) (intact males): 0.38 (±0.06) g
Testes (g) (intact males): 3.48 (±0.08) g
5α-DHT [3]: significant reductions
prostate weight [3]: significant reductions
serum testosterone, luteinizing hormone (LH) or 17β-estradiol levels [3]: no alteration
epididymal histology (H&E) (GDX males; intact males vs control males): overall smaller ducts
prostate histology (H&E) (GDX males; intact males vs intact control): involution and consist of more closely spaced, atrophic glands
proportion circulating in the free or unbound form in plasma [4]: Approximately 50%
binding to [3H]E2, [3H]T, [3H]DHEA, [3H]CORT and [3H]progesterone [5]: without any occurrences of binding
luteinizing hormone (LH) (Male Sprague-Dawley rats): significantly increased
prostate weight (Male Sprague-Dawley rats): significant reduction
